Test results: publication PMC8072580, “Predicting Pharmacokinetic Properties of Potential Anticancer Agents via Their Chromatographic Behavior on Different Reversed Phase Materials” (International Journal of Molecular Sciences, 2021)
Where two headings read alike, the source gives them in different places.

Assays:
[1] = Micellar liquid chromatography (MLC), ODS-2 column, Brij 35 effluent: chromatographic lipophilicity; format: physicochemical; conditions: pH 7.4, ODS-2 column, 25 °C
Description: There are several theories that describe the effect of the concentration of the surfactant in the effluent on the retention of the solute in MLC [23]. The following Foley’s equation is best known in lipophilicity studies:(2) 1/k=1/km+KAM/km[M] where [M] is the total concentration of the surfactant in the mobile phase minus CMC; KAM is the constant that describes solute-micelle binding; and km is the solute retention parameter at the micellar concentration of zero, i.e., when the concentration of the surfactant monomer is equal to CMC. The KAM and km parameters can be evaluated from the slope and intercept of the experimental 1/k vs. [M] relationships.
Equation (2) describes a linear dependence between decreasing retention and increasing micelle concentration. This equation is valid for aqueous solutions of surfactant or mobile phases with the same concentrations of the organic modifier. The micellar retention parameter, log km, is considered analogous to the log kw parameter evaluated in RPLC. According to the information presented above, this parameter is considered to be a lipophilicity descriptor, and Equation (2) is a simple way to indirectly determine the lipophilic properties of compounds. It is postulated that retention in micellar chromatography depends on hydrophobic (lipophilic), electronic, and steric features of the compounds in a similar way as has been noted concerning pharmacokinetic phenomena. The additional similarity results from the fact that the phospholipids, cholesterol, fatty acids, and triglycerides included in the extracellular and intracellular fluids also form micelles with proteins.
(§1) In our investigations, the micellar retention factors were used to calculate the log km parameters using Equation (2) (Table 2). For all of the compounds 1-19, the relationships of 1/k vs. [M] were obtained with very good linearity, confirming that Foley’s equation correctly describes the effect of the concentration of the surfactant in the effluent on the retention of the solute. In our studies, the micellar log km parameters for three pharmacologically active sets of compounds 1-6, 7-14, and 15-19 and the log k factors for solutes 15-19 obtained on IAM and end-capped ODS stationary phases were determined experimentally. All these retention factors, together with the log kw values for compounds 1-14 obtained in our earlier investigations on IAM and end-capped ODS stationary phases, were used as lipophilicity descriptors in the QSARs methodology to predict the pharmacokinetic descriptors of the compounds that were tested.
(§2) Shimadzu Vp (Shimadzu, Izabelin, Polska) liquid chromatographic system was used in HPLC measurements. It was equipped with an LC 10AT pump, SPD 10A UV–Vis detector, SCL 10A system controller, CTO-10 AS chromatographic oven, and Rheodyne injector valve with a 20 μL loop. As the stationary phases, 3 different revered-phase materials were applied: Spherisorb ODS-2 column, 125 × 4 mm i.d., 5 μm (Merck, Lublin, Poland), Regis IAM.PC.DD2 column, 100 × 4.6 mm i.d., 10 μm (Morton Grove, Illinois, USA), and Purosphere RP-18e column, 125 × 4 mm i.d., 5 μm (Merck, Lublin, Poland).
In the MLC technique with an ODS-2 column, buffered Brij 35 mixtures (0.15; 0.125, 0.10, and 0.075 mol/L) with 7% (v/v) addition of isopropanol were used as mobile phases. The buffer was prepared from 0.01 mol/L solutions of Na2HPO4 and citric acid, and the pH 7.4 value was fixed before mixing with an organic modifier. The flow rate was 1 mL/min. Buffered acetonitrile mixtures were used as effluents with the IAM column. Acetonitrile concentration, expressed as a volume fraction, was changed in the range of 0.2–0.5, with the constant step of 0.1. The flow rate was 1.3 mL/min. Acetonitrile concentration was changed in the range of 0.3–0.6 with the RP-18e column, with the constant step of 0.1 and flow rate of 0.1 mL/min. As solutes tested there were used 19 newly designed structurally related compounds. […]

[2] = design: method as in PMID 31864156; conditions: IAM.PC.DD2 column, buffered acetonitrile; cited from earlier work
[3] = design: method as in PMID 31864156; conditions: end-capped ODS column, aqueous acetonitrile; cited from earlier work
[4] = Immobilized artificial membrane (IAM.PC.DD2) chromatography: log kw,IAM; format: physicochemical; conditions: IAM.PC.DD2 column, buffered acetonitrile 0.2-0.5, 25 °C
Description: as §1, §2
(§3) In the MLC technique with an ODS-2 column, buffered Brij 35 mixtures (0.15; 0.125, 0.10, and 0.075 mol/L) with 7% (v/v) addition of isopropanol were used as mobile phases. The buffer was prepared from 0.01 mol/L solutions of Na2HPO4 and citric acid, and the pH 7.4 value was fixed before mixing with an organic modifier. The flow rate was 1 mL/min. Buffered acetonitrile mixtures were used as effluents with the IAM column. Acetonitrile concentration, expressed as a volume fraction, was changed in the range of 0.2–0.5, with the constant step of 0.1. The flow rate was 1.3 mL/min. Acetonitrile concentration was changed in the range of 0.3–0.6 with the RP-18e column, with the constant step of 0.1 and flow rate of 0.1 mL/min. As solutes tested there were used 19 newly designed structurally related compounds. Samples were dissolved in acetonitrile c.a. 0.005 mg/mL. The compounds were detected under UV light at λmax 254 nm. All measurements were carried out at a constant temperature (25 °C). The dead time values were measured from non-retained compound (e.g., sodium chloride) peaks. All reported k values are the average of at least 3 independent measurements.

human cancer cells = test system: human cancer cells; design: method as in PMID 31864156, PMID 16545495, PMID 25528370; conditions: cited from earlier work
[5] = End-capped ODS (RP-18e) column chromatography: log kw,ODS; format: physicochemical; conditions: acetonitrile 0.3-0.6, 25 °C
Description: as §1, §2, §3

Danio rerio = test system: Danio rerio; design: method as in PMID 33390035; conditions: cited from earlier work
[6] = 0.075 M Brij 35, 7% isopropanol
[7] = 0.125 M Brij 35, 7% isopropanol

| Compound | k (MLC retention factor) [1, 6] | k (MLC retention factor) ([1]; 0.1 M Brij 35, 7% isopropanol) | k (MLC retention factor) [1, 7] | k (MLC retention factor) ([1]; 0.15 M Brij 35, 7% isopropanol) | log kw,IAM [2] | log kw,ODS [3] | log kw,IAM [4] | antiproliferative effects in cancer cells compared with normal cells (human cancer cells) | log kw,ODS [5] | safety for early life stages of Danio rerio compared with pemetrexed (Danio rerio) |
| --- | --- | --- | --- | --- | --- | --- | --- | --- | --- | --- |
| CC(C)c1nnc2n(c1=O)CCN2c1ccc(Cl)c(Cl)c1 [Compound 6] | 60.81 | 46.76 | 34.01 | 29.82 | 1.67 [19] | 2.68 [19] |  |  |  |  |
| Cc1ccc(N2CCn3c2nnc(C(C)C)c3=O)cc1 [Compound 2] | 25.51 | 21.45 | 18.25 | 17.34 | 1.05 [19] | 2.01 [19] |  |  |  |  |
| O=c1c(C(F)(F)F)nnc2n1CCN2c1ccc(Cl)c(Cl)c1 [Compound 14] | 59.61 | 44.28 | 32.68 | 28.56 | 2.29 [19] | 2.96 [19] |  |  |  |  |
| CCOC(=O)c1nnc2n(c1=O)CCN2c1ccc(Cl)c(Cl)c1 [Compound 19] | 24.39 | 18.98 | 14.97 | 14.81 |  |  | 3.36 | clearly higher antiproliferative effects in cancer cells than in normal cells | 3.24 |  |
| CC(C)c1nnc2n(c1=O)CCN2c1ccccc1 [Compound 1] | 13.73 | 12.03 | 10.47 | 10.53 | 0.76 [19] | 1.59 [19] |  |  |  |  |
| COc1ccccc1N1CCn2c1nnc(C(F)(F)F)c2=O [Compound 10] | 5.89 | 5.40 | 5.04 | 4.79 | 0.67 [19] | 1.65 [19] |  | clearly higher antiproliferative effects in cancer cells than in normal cells |  |  |
| CC(C)c1nnc2n(c1=O)CCN2c1ccc(Cl)cc1 [Compound 5] | 41.53 | 33.76 | 26.18 | 24.10 | 1.39 [19] | 2.32 [19] |  |  |  |  |
| O=c1c(C(F)(F)F)nnc2n1CCN2c1cccc(Cl)c1 [Compound 12] | 36.90 | 29.09 | 22.17 | 19.83 | 1.66 [19] | 2.43 [19] |  |  |  |  |
| Cc1ccc(N2CCn3c2nnc(C(F)(F)F)c3=O)cc1 [Compound 9] | 25.67 | 21.44 | 17.64 | 16.14 | 1.25 [19] | 2.16 [19] |  |  |  |  |
| CCOC(=O)c1nnc2n(c1=O)CCN2c1cccc(Cl)c1 [Compound 17] | 10.12 | 8.72 | 8.00 | 8.00 |  |  | 1.73 | clearly higher antiproliferative effects in cancer cells than in normal cells | 2.62 |  |
| CC(C)c1nnc2n(c1=O)CCN2c1ccccc1Cl [Compound 3] | 8.98 | 8.18 | 7.46 | 7.20 | 0.65 [19] | 1.42 [19] |  |  |  |  |
| CC(C)c1nnc2n(c1=O)CCN2c1cccc(Cl)c1 [Compound 4] | 39.84 | 31.65 | 24.39 | 22.52 | 1.49 [19] | 2.38 [19] |  |  |  |  |
| CCOC(=O)c1nnc2n(c1=O)CCN2c1ccc(Cl)cc1 [Compound 18] | 9.94 | 8.48 | 7.53 | 7.75 |  |  | 1.12 |  | 1.92 |  |
| CCOC(=O)c1nnc2n(c1=O)CCN2c1ccc(C)cc1 [Compound 16] | 4.49 | 4.04 | 3.81 | 3.75 |  |  | 1.93 |  | 2.80 |  |
| O=c1c(C(F)(F)F)nnc2n1CCN2c1ccccc1Cl [Compound 11] | 10.61 | 9.36 | 8.27 | 7.66 | 0.88 [19] | 1.86 [19] |  | clearly higher antiproliferative effects in cancer cells than in normal cells |  |  |
| CCOC(=O)c1nnc2n(c1=O)CCN2c1ccccc1 [Compound 15] | 2.09 | 1.90 | 1.81 | 1.84 |  |  | 0.48 |  | 1.21 |  |
| O=c1c(C(F)(F)F)nnc2n1CCN2c1ccc(Cl)cc1 [Compound 13] | 41.71 | 32.28 | 25.32 | 22.45 | 1.58 [19] | 2.40 [19] |  |  |  |  |
| O=c1c(C(F)(F)F)nnc2n1CCN2c1ccccc1 [Compound 7] | 14.11 | 12.22 | 10.72 | 10.02 | 0.94 [19] | 1.92 [19] |  |  |  | safer for the early life stages of Danio rerio than pemetrexed |
